The test system of the assay is normal fasted beagle dogs. Kind of assay: Activity and inter-subject variability: glucose lowering after oral liquid dosage formulation. The assay is classed as in vivo. Conditions: fasted beagles, 0.25 mg/kg oral liquid; compared with polydispersed PEG7AVG-hexyl-insulin, monoconjugate (FIG. 21).

Description: The inter-subject variability may be measured by various methods as will be understood by those skilled in the art. The inter-subject variability is preferably calculated as follows. The area under a dose response curve (AUC) (i.e., the area between the dose-response curve and a baseline value) is determined for each subject. The average AUC for all subjects is determined by summing the AUCs of each subject and dividing the sum by the number of subjects. The absolute value of the difference between the subject's AUC and the average AUC is then determined for each subject. The absolute values of the differences obtained are then summed to give a value that represents the inter-subject variability. Lower values represent lower inter-subject variabilities and higher values represent higher inter-subject variabilities.
An effective animal model for evaluating formulations uses normal fasted beagle dogs. These dogs are given 0.25 mg/kg of insulin conjugates to evaluate the efficacy of various formulations.
The protocol for dog experiments calls for a blood glucose measurement at time zero just before a drug is administered. The oral liquid dosage formulation is then squirted into the back of the dog's mouth. In each case, the dogs received 0.25 mg/kg of this solution. Blood is drawn at 15, 30, 60 and 120 minutes and glucose levels are measured and graphed. The lower the glucose levels, the better the activity of the insulin conjugate.

Consider “PEG7-hexyl-insulin, monoconjugate: human insulin monoconjugated at the B29 position with the activated mPEG7-hexyl oligomer of Example 18; non-polydispersed mixture”, for which the “activity (glucose lowering)” value is “higher activity” and the inter-subject variability entry was “less inter-subject variability”.

Take “PEG10-hexyl-insulin, monoconjugate: non-polydispersed mixture of mPEG10-hexyl-insulin, monoconjugates”: the “activity (glucose lowering)” value was “higher activity” and the inter-subject variability entry is recorded as “less inter-subject variability”.

Values taken from patent US7470663B2, “Mixtures of insulin drug-oligomer conjugates comprising polyalkylene glycol, uses thereof, and methods of making same” (Biocon Limited, priority 2001, dated 2008).
